Experimental data taken from patent US20220348565A1, “PHARMACEUTICAL COMPOUNDS” (SENTINEL ONCOLOGY LIMITED, priority 2019, published 2022).

Assays:
U87MG cells [1] = test: Cells in mitosis (phospho-histone H3, mitotic index), U87MG; type: cell-based; settings: Homo sapiens, U-87 MG; % mitotic cells (phospho-histone H3), 24 hours
Excerpt: (§1) Inhibiting the ability of PLK1 and PLK4 to bind to their partners through their PBDs is known to cause cells to arrest in mitosis. Experimentally, this can be measured by assessing the number of cells which are in mitosis at a certain time after treatment with a test compound by immunofluorescent detection of phosphorylated Histone H3 (pH3), a mark which is only present in mitotic cells. PLK1/4-PBD inhibitors are expected to cause a dose-dependent increase in pH3-positive cells, which is reported as Mitotic Index (MI)—the percentage of cells which, at a given time, are positive for this mitotic mark.
(§2) The following protocol was used to measure the effects of atropisomer A-2 and atropisomer A-3 on arresting cells in mitosis.
(§3) Cells were plated at 10 000/well in 96-well plates and incubated overnight. The following day atropisomer A-2 stocks in DMSO were diluted in medium then added to cells with a maximum final DMSO concentration on cells of 0.2%. Cells were incubated with the compound for 24 hours then fixed in 3.7% formaldehyde. Cells were permeabilised with 0.1% Triton X-100 then incubated with anti-phospho-histone H3 (Ser10) antibody (Abcam). The cells were washed with PBS then incubated with AlexaFluor 488 labelled goat anti-rabbit IgG (Invitrogen) in the presence of 4 ug/mL Hoechst 33342 (Invitrogen). […]

[2] = Mouse PK, brain exposure after p.o. dosing; type: in vivo, Male CD-1 mice
Experimental: (§4) Atropisomers A-2 and A-3 were evaluated in an in vivo mouse model to determine brain and plasma concentrations following p.o. and i.v. dosing.
(§5) Male CD-1 mice were dosed with the compounds of Examples A-2 and A-3, either by i.v. administration (2 mg/kg) or by p.o. administration (10 mg/kg). Eight samples were taken for analysis in the i.v. leg at 2, 10, 30 min, 1, 2, 4, 8, and 24 (for i.v) and 9 samples in the p.o. leg at 15, 30 min, 1, 2, 4, 8, 24, 48 and 72 hrs.
(§6) The compounds of Examples A-2 and A-3 were both formulated in 10% DMSO/90% hydroxypropyl-beta-cyclodextrin (20% w/v in water) for i.v. and p.o. dosing. N =3 mice per time point.
(§7) Post dosing, terminal blood samples were taken from individual animals and delivered into labelled polypropylene tubes containing anticoagulant (EDTA). The samples were held on wet ice for a maximum of 30 min while sampling of all the animals in the cohort was completed. The blood samples were centrifuged for plasma (4° C., 21100 g for 5 min) and the resulting plasma transferred into corresponding labelled tubes. Terminal brains from each PO dosed animal were excised, rinsed with saline and placed into pre-weighed labelled polypropylene tubes and the samples re-weighed prior to storage.
(§8) Quantitative bioanalysis was carried out using liquid chromatography—mass spectroscopy was performed. The results are shown in Tables 14, 15 and 16 below and in FIGS. 12 to 15.

[3] = tested on: wild-type KRAS HeLa cells; test: HeLa cell viability, wild-type KRAS transgene, Cell Titre Blue; type: cell-based; settings: 72 hours, listed as A-3, read-out: WT GI50
Experimental: (§9) Atropisomers A-1, A-2, A-3 and A-4 were tested on HeLa cells engineered to inducibly express wild-type or oncogenic KRasG12V transgenes using the FLP-in/T-Rex system (Invitrogen). Cells were plated, and then treated with or without Doxycycline to induce transgene expression, and then treated with serially-diluted PBD inhibitors. After 72 hours of incubation, cell viability was assessed using the Cell Titre Blue reagent (Promega) and a BMG Pherastar plate reader. The effect of PBD inhibition on cell viability with either wild-type or oncogenic G12V KRAS was assessed using GraphPad Prism.
(§10) From the results obtained by following the above protocol, the GI50 values against the wild-type and KRAS G12V HeLa cell line of each of the atropisomers were determined as shown in Table 12.

[4] = Mouse PK, plasma after i.v. and p.o. dosing (oral bioavailability); type: in vivo, Male CD-1 mice; settings: for half-life: read-out: T ½ (converted)
Experimental: as §4, §5, §6, §7, §8

U87MG cells [5] = test: U87MG human glioblastoma cell viability, SRB assay, 72 hours; type: cell-based; settings: listed as A-3
Experimental: The following protocol was used to measure the effects of compounds of the invention on U87MG cell viability.
U87MG cells were grown in their recommended growth media/supplements (ATCC). Cells were seeded at a concentration of 5000 cells per well into 96 well plates overnight at 37° C., 5% CO2. Cells were treated with relevant concentrations of test compound for 72 hours. After 72 hours incubation, viability was established using sulforhodamine B (SRB) colorimetric assay. Percentage viability was calculated against the mean of the DMSO treated control samples, and IC50 values for inhibition of cell growth were calculated using GraphPad Prism software by nonlinear regression (4 parameter logistic equation).

KRAS G12V HeLa cell line = test: HeLa cell viability, oncogenic KRasG12V transgene, Cell Titre Blue; type: cell-based; settings: KRAS G12V HeLa cells, 72 hours; listed as A-3
Experimental: as §9, §10

HeLa cells = test: Cells in mitosis (phospho-histone H3, mitotic index), HeLa; type: cell-based; settings: Homo sapiens, % mitotic cells (phospho-histone H3), 24 hours
Excerpt: as §1, §2, §3

[6] = mouse, po, brain exposure, p.o. 10 mg/kg, male CD-1 mice
[7] = mouse, 2 mg/kg, 2 mq/Kq IV, male CD-1 mice, plasma
[8] = mouse, 10 mg/kg, 10 mq/Kq PO, male CD-1 mice, plasma

CN(C)CCNC(=O)c1ccc(-c2ccc(-c3ccc(Cl)cc3)n2-c2ccccc2C(F)(F)F)nc1 (single isomer, unassigned) [Atropisomer A-3, 6-[5-(4-chlorophenyl)-1-[2-(trifluoromethyl)phenyl]pyrrol-2-yl]-N-[2-(dimethylamino)ethyl]pyridine-3-carboxamide]
EC50 (U87MG cells [1]): 100 nM
Cmax [2, 6]: 604 ng/mL
Tmax [2, 6]: 8 h
half-life ([2]; mouse, po, brain exposure, p.o. 10 mg/kg, male CD-1 mice, read-out: T ½ (converted)): 492 min
AUC(0-t) ([2]; mouse, po, brain, p.o. 10 mg/kg, male CD-1 mice, read-out: AUClast brain): 14100 ng·h/mL
brain exposure (in words) ([2]; oral dosing in mice): high brain exposure
GI50 [3]: 4.68 nM
CI ([4]; 2 mq/Kq IV, male CD-1 mice, plasma): 16.8 mL/min/kg
F ([4]; 10 mq/Kq PO vs 2 mq/Kq IV, male CD-1 mice): 70%
AUC(0-inf) [4, 7]: 1990 ng·h/mL
Cmax [4, 7]: 274 ng/mL
half-life [4, 7]: 504 min
AUC(0-inf) [4, 8]: 6920 ng·h/mL
Cmax [4, 8]: 322 ng/mL
half-life [4, 8]: 498 min
AUC(0-t) ([4]; mouse, po, plasma, p.o. 10 mg/kg, male CD-1 mice, read-out: AUClast plasma): 6920 ng·h/mL
oral absorption / oral bioavailability (in words) ([4]; oral dosing in mice): highly absorbed
IC50 (U87MG cells [5]): 150 nM
GI50 (KRAS G12V HeLa cell line): 2.6 nM
EC50 (HeLa cells): 30 nM
